#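 48-hour exposure; five concentrations; linearly interpolated endpoints. Abbreviation: GI50, concentration required for 50% inhibition of growth. The concentration for full growth arrest is given as TGI.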
# Columns and labels:
# Assay in all cases: DTP human tumour cell line panel, 48 h
# KM20L2 colon = test system: KM20L2 colon
# LXFL 529 NSCLC = test system: LXFL 529 NSCLC
# DLD-1 colon = test system: DLD-1 colon
# XF 498 CNS = test system: XF 498 CNS
# SNB-78 CNS = test system: SNB-78 CNS
# RXF-631 renal = test system: RXF-631 renal
# T-47D breast = test system: T-47D breast
# HS 578T breast = test system: HS 578T breast
# MDA-N = test system: MDA-N
Compound,TGI (KM20L2 colon) [µM],TGI (LXFL 529 NSCLC) [µM],TGI (DLD-1 colon) [µM],GI50 (T-47D breast) [µM],TGI (T-47D breast) [µM],GI50 (HS 578T breast) [µM],TGI (HS 578T breast) [µM],further results
CC1CN1P1(N2CC2C)=NP(N2CC2C)(N2CC2C)=NP(N2CC2C)(N2CC2C)=N1 (configuration not stated),> 50,> 50,> 50,–,–,–,–,TGI (XF 498 CNS): > 50 µM
O=C(CSC(=S)N1CCCCC1)Nc1nc2c(s1)CCCC2,> 100,> 100,> 100,–,–,–,–,TGI (SNB-78 CNS): > 100 µM; TGI (XF 498 CNS): 71.3 µM
NC(CCc1nc(-c2ccc(Cl)cc2)cs1)C(=O)O (configuration not stated),> 100,> 100,> 100,–,–,–,–,TGI (SNB-78 CNS): > 100 µM; TGI (RXF-631 renal): > 100 µM
CCOc1ccccc1-n1c(CN2CCN(C(=O)COc3ccc(CNCCCCCCN4C5CCCC4CC(OC(=O)Nc4cc(C)ccc4OC)C5)cc3)CC2)nc2ccccc2c1=O (configuration not stated),–,–,–,1.78,3.88,1.86,3.94,–
O=C(CN1CCN(c2cc3c(cc2F)c(=O)c(C(=O)N/N=C/c2ccccc2O)cn3C2CC2)CC1)N/N=C\c1ccccc1O,–,–,–,0.796,> 100,8.57,> 100,–
COc1cc(/C=C/c2cc(/C=C/c3ccc(O)c(OC)c3)n(C(=O)Nc3ccc(F)cc3)n2)ccc1O,–,–,–,2.4,9.99,0.689,6.11,–
CC[C@@]12CCCN3CC[C@]4(c5cccc(OC)c5N(C(C)=O)[C@@H]4CC1)[C@H]32,–,–,–,–,> 100,–,> 100,TGI (MDA-N): > 100 µM
CCc1ccc2c(c1)C(=O)c1c-2n(CCCBr)c(=O)c2cc([N+](=O)[O-])ccc12,–,–,–,> 50,> 50,18.2,> 50,–
O=C(CCl)N1c2ccccc2Oc2ccc3ccccc3c21,–,–,–,1.69,4.15,2.29,–,–
CCOC(=O)C(Sc1ccccc1)c1c(OC)cc(=O)oc1/C=[N+](/[O-])c1ccc(N(C)C)cc1 (configuration not stated),89.2,27.2,> 100,–,–,–,–,TGI (SNB-78 CNS): 78.9 µM; TGI (XF 498 CNS): 27.7 µM
Cc1nc2c(nc1C)C(=O)c1ccccc1C2=O,36.3,> 58.3,47.9,–,13.8,–,6.47,TGI (SNB-78 CNS): > 94.2 µM; TGI (MDA-N): 0.562 µM; TGI (RXF-631 renal): 46.1 µM
O=C(O)c1cc(C(=O)O)cc(N2C(=O)c3ccccc3C2=O)c1,–,–,–,–,> 100,–,> 100,TGI (MDA-N): > 100 µM
CSCCCN(CCCSC)CCCSC,–,–,–,–,> 100,–,–,TGI (MDA-N): > 100 µM
CSc1ccccc1C#C/C=C\C#Cc1ccccc1N1CCCC1=O,–,–,–,–,> 20.3,> 9.95,> 50,–
CNC(=O)c1cc(Oc2ccc3nc(NC(=O)Nc4ccc(Cl)c(C(F)(F)F)c4)sc3c2)ccn1,–,–,–,0.723,3.65,1.53,6.27,–
O=C1/C(=C/c2ccc([N+](=O)[O-])cc2)COc2ccc(O)c(O)c21,–,–,–,1.32,3.65,1.94,4.75,–
COc1cc(C(=O)/C=C/c2sc(Cl)nc2Cl)cc(OC)c1OC,–,–,–,2.14,5.35,2.02,5.54,–
Cc1cc(=O)[nH]c2cc3oc4ccccc4c3cc12,–,–,–,–,> 100,–,> 100,TGI (MDA-N): > 100 µM

Compound,TGI (KM20L2 colon) [µM],TGI (LXFL 529 NSCLC) [µM],TGI (DLD-1 colon) [µM],GI50 (T-47D breast) [µM],TGI (T-47D breast) [µM],GI50 (HS 578T breast) [µM],TGI (HS 578T breast) [µM],further results
CC(C)=CCCc1c(C)ccc2c1C(=O)C(=O)C(C(C)C)=C2,> 22,6.65,6.51,–,–,–,–,TGI (XF 498 CNS): 7.15 µM
FC(F)(F)c1ccc(C2SCc3nc4ccccc4n32)cc1 (configuration not stated),–,> 100,> 100,–,–,–,–,TGI (SNB-78 CNS): > 100 µM; TGI (RXF-631 renal): > 100 µM
CC1(C)OC(=O)C(=Cc2ccc(O)cc2)C(=O)O1,> 100,> 100,–,–,–,–,–,TGI (SNB-78 CNS): > 100 µM; TGI (XF 498 CNS): > 100 µM
COc1cc2nc(-c3ccc(C(F)(F)F)cc3)cc(OCCCN3CCC(O)CC3)c2cc1OC,–,–,–,2.97,19.1,3.75,20.9,–
O=C1c2cccnc2-c2nc(-c3ccccc3[N+](=O)[O-])cc3c2c1nc1ccccc13,–,–,–,5.3,> 100,31.2,86.4,GI50 (MDA-N): 12.2 µM; TGI (MDA-N): 26.1 µM
COc1ccc(-c2cc(=O)c3ccc(O)cc3o2)c(OC)c1OC,> 100,> 100,> 100,–,–,–,–,TGI (XF 498 CNS): > 100 µM
COc1cc2c(c(OC)c1O)C(=O)C(OC)C(c1ccc(O)c(O)c1)O2 (configuration not stated),–,–,–,0.513,92.4,0.0889,46.1,–
O=c1cc(-c2cccc(O)c2)[nH]c2cc3c(cc12)OCO3,–,> 100,> 100,–,> 100,–,–,TGI (SNB-78 CNS): 54.2 µM; TGI (MDA-N): 1.07 µM; TGI (XF 498 CNS): > 100 µM
CCOC(=O)c1ncn2c1[nH]c(=S)c1ccccc12,> 100,> 100,> 100,–,–,–,–,TGI (RXF-631 renal): > 100 µM
Cc1cc2nc(C(Cl)Cl)nc(-c3ccc(Cl)cc3)n2n1,–,–,–,2.19,> 26.3,1.34,4.6,–
C[C@@H](CS(C)(=O)=O)Nc1ncc2cc(Oc3ccc(F)cc3F)c(=O)n(C)c2n1,–,–,–,> 25,> 25,> 25,> 25,–
COc1ccc(NC(=O)c2cc(OC)cc(OC)c2)cc1,32,> 100,> 100,–,–,–,–,TGI (SNB-78 CNS): 83.3 µM; TGI (XF 498 CNS): > 100 µM
COc1ccc(-c2cc(-c3ccc(Nc4nc(Nc5ccccc5)nc(Nc5ccc(Cl)cc5)n4)cc3)nc(N)c2C#N)cc1,–,–,–,0.733,1.65,1.21,5.08,–
COc1ccc2c(c1)C1(C=N2)CCN(C(C)=O)CC1,> 100,> 100,> 100,–,–,–,–,TGI (SNB-78 CNS): > 100 µM; TGI (RXF-631 renal): > 100 µM
COc1cc2cnc3c4cc(OC(C)C)c(OC)cc4ccc3c2cc1OC,> 100,> 100,> 100,–,–,–,–,TGI (XF 498 CNS): > 100 µM
COc1ccc2c(c1)C(=O)/C(=C/c1ccc(OCC(=O)Nc3nccs3)cc1)O2,–,–,–,7.05,31.9,9.23,> 63.8,–
O=C(O)CCSC(=O)Nc1cccc(F)c1,> 100,> 100,–,–,–,–,–,TGI (SNB-78 CNS): > 100 µM
CCOC(=O)C1=C(C)CC2C(=O)OC(=O)C2C1(C)C (configuration not stated),–,> 100,> 100,–,–,–,–,–

# Reference: PubChem BioAssay (NCI)
